Measurements: patent US7973145B2, “Sulfonated sugar compounds, pharmaceutical compositions which contain the same, and methods of treating tumors with the same” (priority 2007, dated 2011)

Tests used:
[1] = tested on: bone marrow cells (immature erythrocytes); assay: Micronucleus test by rat intravenous administration; format: in vivo; conditions: male SD rats
Procedure: Five male SD rats were assigned to each of the six groups (1) to (6): The test solutions for (1) to (5) contained a normal saline solution containing 10% CREMOPHOR EL as the solvents, and the above-described doses were administered to the rats twice in total for two consecutive days. To the positive control group, the above-described dose was administered once. About 24 hours after the administration, bone marrow smears were prepared. Two thousands of immature erythrocytes were counted for each individual, and the incidence of immature erythrocytes having a micronucleus was calculated. As the index of marrow proliferation suppression, the proportion of immature erythrocytes contained in 1000 erythrocytes was calculated. […] In addition, no influence was found on the marrow proliferation suppression in the test substance-administered group.

[2] = tested on: Human esophageal squamous cell carcinoma cells TE-8; assay: Radiosensitizing effect test, tumor-bearing mouse, human esophageal squamous cell carcinoma; format: in vivo, KSN nude mice
Procedure: (§1) The radiosensitizing effect was examined through tumor-bearing mouse experiment.
Human esophageal squamous cell carcinoma cells TE-8 were transplanted into the right femoral region of KSN nude mice in a ratio of 1×10^6 cells per individual. Subsequently, the mice were bred for about 14 days to form a tumor mass of about 150 mm^3 in each individual. Thereafter, four mice were assigned to each of the following groups (1) to (4):
(§2) The drug was administered from Day 1 to Day 5, 2 mg/kg once a day. The subjects were exposed to radiation emitted from an X-ray generator (HS-225, manufactured by Shimadzu Co., Ltd.) at a dose of 2 Gy on Day 1 and Day 4. The tumor volume was calculated according to the calculation formula: (minor axis)^2×major axis×0.5.
This experiment was conducted in the same manner as Example V-1, except that the drug dose administered from Day 1 to Day 5 was 1 mg/kg once a day, and the radiation dose was 4 Gy, and the tumor volume was measured.
Human esophageal squamous cell carcinoma cells TE-8 were transplanted into the right femoral region of KSN nude mice in a ratio of 1×10^6 cells per individual. After a tumor mass of about 50 mm^3 was formed in each individual, four mice were assigned to each of the four groups (1) to (4):
The drug was administered intraperitoneally from Day 1 to Day 5, 1 mg/kg once a day. The subjects were exposed to radiation emitted from an X-ray generator (HS-225, manufactured by Shimadzu Co., Ltd.) at a dose of 4 Gy on Day 1 and Day 4.

[3] = tested on: human vascular endothelial cells and human fibrocytes; assay: Tube formation inhibition test using vascular endothelial cell-fibrocyte cocultivation system (angiogenesis kit KZ-1000); format: cell-based; conditions: FIG. 10, combined with 2 Gy radiation, calcium(salt)-substituted compound, 10 ng/ml VEGF-A
Procedure: Using a angiogenesis kit (KZ-1000) manufactured by Kurabo Industries Ltd., which is a cocultivation system for human vascular endothelial cells and human fibrocytes, the effects of αSQAP C10:0, αSQAP C14:0, αSQAP C18:0, αSQAP C22:0, βSQAP C18:0, and βSQAP C18:1 on tube formation were examined. Cultivation for tube formation using the kit was conducted according to the manufacturer's instruction manual.
Using a medium containing a final concentration of 10 ng/ml of VEGF-A and being designed specifically for angiogenesis, the respective SQAP compounds were prepared to have intended concentrations. On Day 1 of the cell cultivation, special media each containing SQAP compounds at the respective concentrations and DMSO (negative control) were added to the cultivation systems. The systems were cultivated for 30 minutes, and irradiated with 2 Gy of cobalt 60. Thereafter, on Days 4, 7, and 10 of the cultivation, the media were replaced with newly prepared special media containing SQAP or DMSO. The media were removed on Day 11 of the cultivation, fixed with 70% ethanol, and the formed tubes were stained with anti-human CD31 antibody. The stained figures were photographed under an optical microscope, and the quantity of tube formation was calculated by the image analysis. The angiogenesis index was calculated according to the manufacturer's instruction manual.

[4] = Solubility measurement in injectable water; format: physicochemical; conditions: 1 g in 5 ml of injectable water
[5] = tested on: Human colonic adenocarcinoma cells SW480; assay: Radiosensitizing effect test, tumor-bearing mouse, human colonic adenocarcinoma; format: in vivo, KSN nude mice
Procedure: as §1
Human colonic adenocarcinoma cells SW480 were transplanted into the right femoral region of KSN nude mice in a ratio of 1×10^6 cells per individual. Subsequently, the mice were bred for about 14 days to form a tumor mass of about 150 mm^3 in each individual.
as §2
Human colonic adenocarcinoma cells SW480 were transplanted into the right femoral region of KSN nude mice in a ratio of 2×10^6 cells per individual. After a tumor mass of about 50 mm^3 was formed in each individual, four mice were assigned to each of the four groups (1) to (4):
The drug was administered from the tail vein from Day 1 to Day 5, 1 mg/kg once a day. The subjects were exposed to radiation emitted from an X-ray generator (HS-225, manufactured by Shimadzu Co., Ltd.) at a dose of 2 Gy on Day 1 and Day 4.

[6] = tested on: Human colonic adenocarcinoma cells SW480; assay: Antineoplastic effect test (drug alone), tumor-bearing mouse; format: in vivo, KSN nude mice; conditions: Example VI, FIG. 9; calcium(salt)-substituted compound alone, intraperitoneally 20 mg/kg once a day Day 1 to Day 14
Procedure: Human colonic adenocarcinoma cells SW480 were transplanted into the right femoral region of KSN nude mice in a ratio of 2×10^6 cells per individual. After a tumor mass of about 50 mm^3 was formed in each individual, four mice were assigned to each of the two groups (1) and (2):
The drug was administered intraperitoneally from Day 1 to Day 14, 20 mg/kg once a day.

[7] = tested on: SD rats; assay: Single dose (acute) toxicity test; format: in vivo; conditions: female and male SD rats, single dose via tail vein
Procedure: Using αSQAP C18:0, an acute toxicity test was conducted on rats. Five female and five male SD rats of 5 to 6 weeks old were assigned to each of the groups (1) to (7):
The test solution for (1) and (4) to (7) contained a normal saline solution containing 10% CREMOPHOR EL, (2) contained a normal saline solution containing 2.5% CREMOPHOR EL, and (3) contained a normal saline solution containing 5% CREMOPHOR EL as the solvents.

[8] = tested on: Salmonella typhimurium and Escherichia coli indicator bacterial strains; assay: Reverse mutation assay (Ames test); conditions: 2 μg to 5000 μg per plate, presence or absence of S9 mix, all five strains
[9] = intravenous, 25 to 200 mg/kg twice for two consecutive days
[10] = Examples V-5 and V-6, FIG. 7 and 8, calcium(salt)-substituted compound, intraperitoneally 1 mg/kg once a day Day 1 to Day 5 plus X-ray 4 Gy on Day 1 and Day 4
[11] = final concentrations of 5, 10, and 20 μM
[12] = final concentrations of 5 and 10 μM

With “3-O-(6-sulfo-α-D-quinovopyranosyl)-1-O-stearoyl-propane-1,3-diol calcium salt [αSQAP C18:0 calcium salt]” the “incidence of micronuclei (immature erythrocytes having a micronucleus) in comparison with the non-administered group” value ([1]; intravenous, 25, 50, 100, 200 mg/kg twice for two consecutive days, bone marrow about 24 hours after) was “no significant increase”, the “chromosomal aberration in bone marrow cells” value [1, 9] was “inducing no chromosomal aberration” and the “marrow proliferation suppression (proportion of immature erythrocytes in 1000 erythrocytes)” value [1, 9] was “no influence”.

In the case of `CCCCCCCCCC(=O)OCCCO[C@H]1O[C@H](CS(=O)(=O)[O-])[C@@H](O)[C@H](O)[C@H]1O.[Na+]` [αSQAP C10:0, 3-O-(6-sulfo-α-D-quinovopyranosyl)-1-O-decanoyl-propane-1,3-diol sodium salt], the “increase of the tumor volume, drug plus radiotherapy, in comparison with other groups” value (from here on “increase of the tumor volume … with other groups”) [2, 10] is reported as “most suppressed” and the tube formation [3, 11] is reported as “inhibited tube formation in a concentration-dependent manner”.

In the case of `CCCCCCCCCCCCCC(=O)OCCCO[C@H]1O[C@H](CS(=O)(=O)[O-])[C@@H](O)[C@H](O)[C@H]1O.[Na+]` [αSQAP C14:0, 3-O-(6-sulfo-α-D-quinovopyranosyl)-1-O-myristoyl-propane-1,3-diol sodium salt], the tube formation [3, 11] is reported as “inhibited tube formation in a concentration-dependent manner”.

In the case of `CCCCCCCCCCCCCCCCCC(=O)OCCCO[C@H]1O[C@H](CS(=O)(=O)[O-])[C@@H](O)[C@H](O)[C@H]1O.[Na+]` [αSQAP C18:0, 3-O-(6-sulfo-α-D-quinovopyranosyl)-1-O-stearoyl-propane-1,3-diol sodium salt], the “solubility evaluation by the criteria of the general rules Japanese Pharmacopeia” value ([4]; 25° C.) is reported as “readily soluble”, the “dissolution in injectable water” value ([4]; strongly shaken at 25° C.) is reported as “immediately dissolved” and the “increase of the tumor volume, drug plus radiotherapy” value ([5]; Example V-3, FIG. 5, 2 mg/kg once a day Day 1 to Day 5 plus X-ray 2 Gy on Day 1 and Day 4) is reported as “markedly suppressed”. For the same molecule, the “increase of the tumor volume … with other groups” value ([5]; Example V-4, FIG. 6, calcium(salt)-substituted compound, tail vein 1 mg/kg once a day Day 1 to Day 5 plus X-ray 2 Gy on Day 1 and Day 4) was “most suppressed”, the “increase of the tumor volume in comparison with the non-administered group” value [6] was “markedly suppressed” and the “mortality during the test period” value ([7]; 25 to 800 mg/kg, observed for two days) was “No individual died”. For the same molecule, the lethal dose ([7]; estimated) was “higher than 800 mg/kg”, the “suppression of the increase of the tumor volume compared with radiotherapy alone” value ([2]; Example V-1, FIG. 3, drug alone (un-irradiated), 2 mg/kg once a day Day 1 to Day 5, versus 2 Gy on Day 1 and Day 4 alone) was “at the same level” and the “increment of the tumor volume versus non-administered, un-irradiated group” value ([2]; Example V-1, FIG. 3, drug alone (un-irradiated), 2 mg/kg once a day Day 1 to Day 5, from about Day 10) was “fell below that in the (1) non-administered, un-irradiated group”. For the same molecule, the “increase of the tumor volume … with other groups” value ([2]; Example V-2, FIG. 4, 1 mg/kg once a day Day 1 to Day 5 plus X-ray 4 Gy) was “most strongly suppressed”, the “increment in the tumor volume versus non-administered, un-irradiated group” value ([2]; Example V-2, FIG. 4, drug alone (un-irradiated), 1 mg/kg once a day Day 1 to Day 5) was “smaller than that in the (1) non-administered, un-irradiated group” and the “increase of the tumor volume … with other groups” value [2, 10] was “most suppressed”. The mutagenicity [8] was “negative”, the “number of revertant colonies” value ([8]; calcium(salt)-substituted compound) was “did not increase” and the tube formation [3, 11] was “inhibited tube formation in a concentration-dependent manner”.

In the case of `CCCCCCCCCCCCCCCCCCCCCC(=O)OCCCO[C@H]1O[C@H](CS(=O)(=O)[O-])[C@@H](O)[C@H](O)[C@H]1O.[Na+]` [αSQAP C22:0, 3-O-(6-sulfo-α-D-quinovopyranosyl)-1-O-behenoyl-propane-1,3-diol sodium salt], the tube formation [3, 11] is reported as “inhibited tube formation in a concentration-dependent manner”.

In the case of `CCCCCCCCCCCCCCCCCC(=O)OCC(O)CO[C@H]1O[C@H](CS(=O)(=O)[O-])[C@@H](O)[C@H](O)[C@H]1O.[Na+]` (stereo partly drawn) [αSQMG C18:0, 3-O-(6-sulfo-α-D-quinovopyranosyl)-1-O-stearoyl-glycerol sodium salt, reference compound], the “increase of the tumor volume … with other groups” value ([2]; Example V-1, FIG. 3, 2 mg/kg once a day Day 1 to Day 5 plus X-ray 2 Gy on Day 1 and Day 4) is reported as “most suppressed”.

For `CCCCCCCCCCCCCCCCCC(=O)OCCCO[C@@H]1O[C@H](CS(=O)(=O)[O-])[C@@H](O)[C@H](O)[C@H]1O.[Na+]` [βSQAP C18:0, 3-O-(6-sulfo-β-D-quinovopyranosyl)-1-O-stearoyl-propane-1,3-diol sodium salt], the tube formation [3, 12] was “inhibited tube formation in a concentration-dependent manner”.

For `CCCCCCCC/C=C\CCCCCCCC(=O)OCCCO[C@@H]1O[C@H](CS(=O)(=O)[O-])[C@@H](O)[C@H](O)[C@H]1O.[Na+]` [βSQAP C18:1, 3-O-(6-sulfo-β-D-quinovopyranosyl)-1-O-oleoyl-propane-1,3-diol sodium salt], the tube formation [3, 12] was “inhibited tube formation in a concentration-dependent manner”.
